Assay [1] has as its target T1, EGFR(L858R/T790M) (Homo sapiens, UniProt P00533, L858R/T790M).
T1 construct: purchased from Carna (GST-a.a. 669-1210)
As to the kind of experiment: EGFR biochemical assay (HTRF), IC50 determinations. In a few lines: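 Two formats were run: compound preincubated at room temperature with enzyme and biotin-TK peptide before ATP starts the reaction, or no preincubation with enzyme added last. Reactions ran 60 min at room temperature and were stopped with EDTA. Phosphopeptide was read by HTRF (PT66K/SAXL, 1 h).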
In general terms: TR-FRET usually uses a lanthanide donor and a delayed reading to cut background.

The target of assay [2] is human EGFR WT (NIH/3T3 cells, EGF-induced) (Homo sapiens, UniProt P00533). As to the kind of experiment: EGFR target modulation in engineered NIH/3T3 cell lines (phospho-EGFR Y1068 AlphaLISA), EGFR WT. Format: cell-based. The settings on record: engineered NIH/3T3 cells, read-out: NIH3T3 IC50 (μM) EGFR (WT). In a few lines:
(§1)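 Engineered NIH/3T3 cells were plated overnight, then exposed to a 12-point 1:3 compound series (from a 10 μM stock) for 3 hours at 37 °C. WT-expressing cells alone were stimulated with 50 ng/ml EGF for 5 minutes before lysis. IC50s came from non-linear fits of AlphaLISA signal.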
(In general: Alpha assays give light when donor and acceptor beads are brought close together.)

Assay [3] deals with HEKn (EGFR WT) (Homo sapiens, UniProt P00533). Briefly: EGFR target modulation in HEKn (EGFR-WT) cell line (phospho-EGFR Y1173 ELISA). The format is cell-based. Conditions: value outside parentheses. The procedure:
EGFR Target Modulation in HEKn (EGFR-WT) Cell Line Tissue Culture. Human neonatal epithelial keratinocytes (Invitrogen #C-001-5C) were maintained in EpiLife media (Invitrogen #[…]) supplemented with growth factors (Invitrogen #S-001-5). Cells were harvested with 0.05% Trypsin/EDTA (Hyclone #SH30236.01) and quenched with 5% FBS/EpiLife media. […] The serial diluted compounds were transferred to the plate containing cells by using a 50 nl Pin Head device (Perkin Elmer) and the cells were placed back in the incubator for 3 hours. […] Phospho-EGFR (Y1173) ELISA. Solid white high-binding ELISA plates (Greiner #781074) were coated with 5 ug/ml anti-EGFR capture antibody (R&D Systems #AF231) overnight in 50 mM carbonate/bicarbonate pH 9.5 buffer. […] Wash steps were carried out with a Bio-Tek ELx405 SelectTM using 4 cycles of 100 ul TBS-T (20 mM Tris, 137 mM NaCl, 0.05% Tween-20) per well. […] Lysis was allowed to occur for 20 minutes on ice. A 25 ul aliquot was added to each well of the blocked ELISA plate and incubated overnight at 4° C. with gentle shaking. […] After washing, 1:2,000 anti-rabbit-HRP (Cell Signaling #7074) in 0.2% BSA/TBS-T was added and incubated for 1 hour at room temperature. Chemiluminescent detection was carried out with SuperSignal ELISA Pico substrate (ThermoScientific #37069). Signal was read on EnVision plate reader using built-in UltraLUM setting. Data Analysis. Control cells treated with EGF were set to 100% maximum response. […] With these parameters, the IC50's for each compound in each cell line was calculated using non-linear curve fitting analysis.
On the technique in general: An ELISA detects its analyte on a solid surface through an enzyme-linked reagent.

The target in assay [4] is H3255 (EGFR L858R) (Homo sapiens, UniProt P00533, L858R). Briefly: EGFR target modulation in H3255 cell line (phospho-EGFR Y1173 ELISA). The format is cell-based. The method, then: (§2) EGFR Target Modulation in H1975, H3255 and HCC827 Cell Lines Tissue Culture. Cells were maintained in 10% FBS/RPMI supplemented with 100 μg/ml Penicillin/Streptomycin (Hyclone #SH30236.01). […] The cells were allowed to incubate overnight in a 37° C., 5% CO2 humidified tissue culture incubator. […] The serial diluted compounds were transferred to the plate containing cells by using a 50 nl Pin Head device (Perkin Elmer) and the cells were placed back in the incubator for 3 hours. Phospho-EGFR ([…]) Target Modulation Assay. The media was reduced to 20 ul using a Bio-Tek ELx 405 SelectTM plate washer. […] The plates were shaken at 4° C. for 20 minutes. An aliquot of 25 ul from each well was transferred to pEGFR(Y1173) ELISA plates for analysis. Phospho-EGFR ([…]) ELISA. Solid white high-binding ELISA plates (Greiner #781074) were coated with 5 ug/ml anti-EGFR capture antibody (R&D Systems #AF231) overnight in 50 mM carbonate/bicarbonate pH 9.5 buffer. Plates were blocked with 1% BSA (Sigma #A7030) in PBS for 1 hour at room temperature. Wash steps were carried out with a Bio-Tek ELx405 SelectTM using 4 cycles of 100 ul TBS-T (20 mM Tris, 137 mM NaCl, 0.05% Tween-20) per well. […] Lysis was allowed to occur for 20 minutes on ice. A 25 ul aliquot was added to each well of the blocked ELISA plate and incubated overnight at 4° C. with gentle shaking. […] After washing, 1:2,000 anti-rabbit-HRP (Cell Signaling #7074) in 0.2% BSA/TBS-T was added and incubated for 1 hour at room temperature. Chemiluminescent detection was carried out with SuperSignal ELISA Pico substrate (ThermoScientific #37069). Signal was read on EnVision plate reader using built-in UltraLUM setting. Data Analysis. Control cells treated with EGF were set to 100% maximum response. […] With these parameters, the IC50's for each compound in each cell line was calculated using non-linear curve fitting analysis.

The target of assay [5] is human EGFR L858R/T790M (NIH/3T3 cells) (Homo sapiens, UniProt P00533, L858R/T790M). As to the kind of experiment: EGFR target modulation in engineered NIH/3T3 cell lines (phospho-EGFR Y1068 AlphaLISA), EGFR L858R/T790M. Format: cell-based. Conditions: engineered NIH/3T3 cells, read-out: NIH3T3 IC50 (μM) EGFR (L858R/T790M). In a few lines: as §1
Assay [6] concerns the target human EGFR L858R (NIH/3T3 cells) (Homo sapiens, UniProt P00533, L858R). As to the kind of experiment: EGFR target modulation in engineered NIH/3T3 cell lines (phospho-EGFR Y1068 AlphaLISA), EGFR L858R. Format: cell-based. Conditions: engineered NIH/3T3 cells, read-out: NIH3T3 IC50 (μM) EGFR (L858R). The method, boiled down: as §1
Assay [7] has as its target H1975 (EGFR L858/T790M) (Homo sapiens, UniProt P00533, L858R/T790M). Briefly: EGFR target modulation in H1975 cell line (phospho-EGFR Y1173 ELISA). Format: cell-based. The method, then: as §2
Where [8] appears, read: EGFR (L858R/T790M) with 90 min pre-incubation, read-out: IC50 (μM) Column B.
[9] abbreviates: EGFR (L858R/T790M) with no pre-incubation, read-out: IC50 (μM) Column A.

Read-outs that look alike come from different tables or passages of the source.

HEKn (EGFR WT), sequence (P00533 25-1210): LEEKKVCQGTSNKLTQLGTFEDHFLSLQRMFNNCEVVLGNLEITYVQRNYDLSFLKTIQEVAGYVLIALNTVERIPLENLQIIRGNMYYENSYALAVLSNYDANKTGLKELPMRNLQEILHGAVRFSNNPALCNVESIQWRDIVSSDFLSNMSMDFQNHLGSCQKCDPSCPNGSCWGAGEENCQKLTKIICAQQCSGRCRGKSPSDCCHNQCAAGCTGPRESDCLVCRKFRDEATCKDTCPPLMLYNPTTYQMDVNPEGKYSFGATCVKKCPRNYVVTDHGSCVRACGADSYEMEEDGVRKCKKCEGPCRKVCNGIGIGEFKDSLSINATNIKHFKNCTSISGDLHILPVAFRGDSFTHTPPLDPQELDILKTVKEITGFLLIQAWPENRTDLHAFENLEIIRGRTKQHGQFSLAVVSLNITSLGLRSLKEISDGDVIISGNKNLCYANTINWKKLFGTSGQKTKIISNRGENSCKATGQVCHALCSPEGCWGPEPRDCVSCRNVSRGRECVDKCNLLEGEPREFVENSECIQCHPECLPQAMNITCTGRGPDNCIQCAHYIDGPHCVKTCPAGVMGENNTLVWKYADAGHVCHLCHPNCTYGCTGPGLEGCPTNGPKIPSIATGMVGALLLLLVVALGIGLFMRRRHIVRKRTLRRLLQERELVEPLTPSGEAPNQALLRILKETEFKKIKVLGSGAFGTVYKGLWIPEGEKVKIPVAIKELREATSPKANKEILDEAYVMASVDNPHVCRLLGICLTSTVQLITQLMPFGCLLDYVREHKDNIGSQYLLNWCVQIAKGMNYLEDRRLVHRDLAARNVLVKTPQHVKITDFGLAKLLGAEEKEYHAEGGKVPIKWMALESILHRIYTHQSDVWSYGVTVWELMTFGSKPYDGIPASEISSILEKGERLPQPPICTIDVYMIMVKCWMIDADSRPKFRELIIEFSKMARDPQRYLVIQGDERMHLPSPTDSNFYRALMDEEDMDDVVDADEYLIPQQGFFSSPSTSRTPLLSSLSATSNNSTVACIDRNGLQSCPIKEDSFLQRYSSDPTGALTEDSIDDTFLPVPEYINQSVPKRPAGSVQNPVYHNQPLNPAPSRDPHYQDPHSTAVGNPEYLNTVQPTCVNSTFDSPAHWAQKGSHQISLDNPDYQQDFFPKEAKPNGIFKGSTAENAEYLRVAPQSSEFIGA
human EGFR WT (NIH/3T3 cells, EGF-induced), sequence (P00533 25-1210): as above
T1 sequence (P00533 669-1210 T790M/L858R): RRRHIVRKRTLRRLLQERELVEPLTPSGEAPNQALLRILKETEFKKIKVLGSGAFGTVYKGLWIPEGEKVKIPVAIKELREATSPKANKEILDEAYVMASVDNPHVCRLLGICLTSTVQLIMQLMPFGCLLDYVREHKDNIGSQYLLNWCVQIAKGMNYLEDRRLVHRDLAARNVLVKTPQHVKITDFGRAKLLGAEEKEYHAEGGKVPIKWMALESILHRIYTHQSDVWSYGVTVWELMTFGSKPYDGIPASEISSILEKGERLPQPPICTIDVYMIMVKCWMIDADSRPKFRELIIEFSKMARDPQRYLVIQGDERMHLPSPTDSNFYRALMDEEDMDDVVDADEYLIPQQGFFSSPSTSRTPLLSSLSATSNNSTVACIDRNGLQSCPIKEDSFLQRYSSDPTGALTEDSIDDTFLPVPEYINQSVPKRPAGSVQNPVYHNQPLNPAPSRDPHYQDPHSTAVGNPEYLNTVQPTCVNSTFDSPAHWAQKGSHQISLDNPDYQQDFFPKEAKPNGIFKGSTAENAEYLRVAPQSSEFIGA
H1975 (EGFR L858/T790M), sequence (P00533 25-1210 T790M/L858R): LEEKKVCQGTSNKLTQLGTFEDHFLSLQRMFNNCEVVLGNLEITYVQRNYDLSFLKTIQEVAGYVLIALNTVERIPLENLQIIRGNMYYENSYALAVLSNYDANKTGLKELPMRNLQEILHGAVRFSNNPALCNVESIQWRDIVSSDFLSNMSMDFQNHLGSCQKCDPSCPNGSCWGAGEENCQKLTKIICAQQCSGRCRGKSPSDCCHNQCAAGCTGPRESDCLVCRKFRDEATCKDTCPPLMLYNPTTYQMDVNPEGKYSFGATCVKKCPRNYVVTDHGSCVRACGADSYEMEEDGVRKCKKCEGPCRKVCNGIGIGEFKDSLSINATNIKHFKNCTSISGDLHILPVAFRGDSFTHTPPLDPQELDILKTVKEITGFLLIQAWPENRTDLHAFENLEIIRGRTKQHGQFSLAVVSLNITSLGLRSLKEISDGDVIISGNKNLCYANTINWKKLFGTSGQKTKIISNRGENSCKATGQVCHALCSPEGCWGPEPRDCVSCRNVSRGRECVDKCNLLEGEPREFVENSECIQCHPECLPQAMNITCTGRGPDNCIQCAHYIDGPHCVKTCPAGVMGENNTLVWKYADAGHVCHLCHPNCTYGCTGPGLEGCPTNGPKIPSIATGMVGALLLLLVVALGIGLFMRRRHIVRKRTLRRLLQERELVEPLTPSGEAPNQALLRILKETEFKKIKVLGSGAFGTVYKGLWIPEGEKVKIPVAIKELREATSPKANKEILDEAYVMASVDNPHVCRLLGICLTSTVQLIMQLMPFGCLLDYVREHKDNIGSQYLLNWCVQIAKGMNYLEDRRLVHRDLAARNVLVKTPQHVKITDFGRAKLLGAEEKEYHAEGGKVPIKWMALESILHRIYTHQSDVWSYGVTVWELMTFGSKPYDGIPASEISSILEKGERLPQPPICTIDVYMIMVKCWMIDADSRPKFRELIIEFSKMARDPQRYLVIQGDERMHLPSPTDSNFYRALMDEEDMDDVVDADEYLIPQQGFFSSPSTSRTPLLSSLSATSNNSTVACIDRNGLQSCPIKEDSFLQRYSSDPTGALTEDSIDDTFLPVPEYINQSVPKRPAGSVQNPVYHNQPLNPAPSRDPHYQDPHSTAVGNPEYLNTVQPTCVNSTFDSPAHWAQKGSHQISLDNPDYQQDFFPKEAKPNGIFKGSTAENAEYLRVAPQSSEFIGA

For `C=CC(=O)N1CCCC[C@@H](n2c(NC(=O)c3ccnnc3)nc3ccc(OC)c(Cl)c32)C1` [Example 9, (R)—N-(1-(1-acryloylazepan-3-yl)-7-chloro-6-methoxy-1H-benzo[d]imidazol-2-yl)pyridazine-4-carboxamide], the IC50 was less than 0.001 µM in assay [1] (setting [8]); 0.006 µM in assay [1] (setting [9]); 0.101 µM in assay [2]; 152 nM in assay [3]; 8 nM in assay [4]; 0.002 µM in assay [5]. Also, the IC50 in assay [6] is 0.008 µM; in assay [7], 3 nM.
With `Cc1cc(C(=O)Nc2nc3cccc(C)c3n2[C@@H]2CCCCN(C(=O)/C=C/CN(C)C)C2)cc(Cl)n1` [Example 17-74], the IC50 in assay [1] (setting [8]) is less than 0.001 µM; in assay [1] (setting [9]), 0.003 µM; in assay [2] it was 0.076 µM; in assay [3], 261 nM; in assay [4], 11 nM; in assay [5], 0.002 µM. Moreover, the IC50 was 0.004 µM in assay [6] and 2 nM in assay [7].
Consider `Cc1ccc(C(=O)Nc2nc3cccc(C)c3n2C2CCCCN(C(=O)/C=C/CN(C)C)C2)cn1` (stereo not shown) [Example 17-47], for which the IC50 is less than 0.001 µM in assay [1] (setting [8]); 0.009 µM in assay [1] (setting [9]); 0.052 µM in assay [2]; 186 nM in assay [3]; 4 nM in assay [4]; 0.003 µM in assay [5]. Further, the IC50 in assay [6] worked out at 0.002 µM; in assay [7], 17 nM.
On to `Cc1cccc2nc(NC(=O)c3cccc(S(C)(=O)=O)c3)n(C3CCCCN(C(=O)/C=C/CN(C)C)C3)c12` (stereo not shown) [Example 17-52], for which the IC50 in assay [1] (setting [8]) was less than 0.001 µM; in assay [1] (setting [9]) it was 0.002 µM; in assay [2] it was 0.103 µM; in assay [3], 320 nM; in assay [4], 5 nM; in assay [5], less than 0.001 µM. The IC50 in assay [6] was found to be 0.003 µM; in assay [7], 2 nM.
For the compound `Cc1cc(C(=O)Nc2nc3cccc(Cl)c3n2[C@@H]2CCCCN(C(=O)/C=C/CN3CC(O)C3)C2)ccn1` [Example 3-13], the IC50 was less than 0.001 µM in assay [1] (setting [8]); 0.007 µM in assay [1] (setting [9]); 0.41 µM in assay [2]; 900 nM in assay [3]; 12 nM in assay [4]; 0.022 µM in assay [5]. For the same compound, the results for the IC50 in assay [6] and in assay [7] were 0.014 µM and 19 nM, respectively.
Consider `C=CC(=O)N1CCCC[C@@H](n2c(NC(=O)c3ccccc3)nc3cccc(CN(C)C)c32)C1` [Example 17-129], for which the IC50 in assay [1] (setting [8]) is less than 0.001 µM; in assay [1] (setting [9]), 0.002 µM; in assay [2], 0.045 µM; in assay [3], 28 nM; in assay [4], 4 nM; in assay [5] it was 0.002 µM. Further, the IC50 came to 0.002 µM in assay [6] and 1 nM in assay [7].
As for `Cc1cccc2nc(NC(=O)c3ccc(F)cc3)n(C3CCCCN(C(=O)/C=C/CN(C)C)C3)c12` (stereo not shown) [Example 17-26], the IC50 in assay [1] (setting [8]) was less than 0.001 µM; in assay [1] (setting [9]) it was 0.005 µM; in assay [2], 0.139 µM; in assay [3] it was 190 nM; in assay [4], 15 nM; in assay [5], 0.005 µM. Besides, the IC50 in assay [6] came to 0.003 µM; in assay [7] it was 5 nM.
Regarding `Cc1cccc2nc(NC(=O)c3cccc(F)c3F)n(C3CCCCN(C(=O)/C=C/CN(C)C)C3)c12` (stereo not shown) [Example 17-27], the IC50 in assay [1] (setting [8]) stood at 0.002 µM; in assay [1] (setting [9]), 0.021 µM; in assay [2] it was 0.67 µM; in assay [3], 1000 nM; in assay [4] it was 88 nM; in assay [5], 0.005 µM. The IC50 in assay [6] came out at 0.012 µM; in assay [7], 12 nM.
Take `C=CC(=O)N1CCCC[C@@H](n2c(NC(=O)c3ccnnc3)nc3cccc(OC)c32)C1` [Example 17-84]: the IC50 in assay [1] (setting [8]) came out at 0.003 µM; in assay [1] (setting [9]), 0.049 µM; in assay [2] it was 1.94 µM; in assay [3], 1660 nM; in assay [4], 137 nM; in assay [5], 0.028 µM. Besides, the IC50 in assay [6] was found to be 0.04 µM; in assay [7], 37 nM.
`Cc1cc(C(=O)Nc2nc3cccc(Cl)c3n2[C@@H]2CCCCN(C(=O)/C=C/CN3CC[C@@H](F)C3)C2)ccn1` [Example 3-1]: the IC50 is less than 0.001 µM in assay [1] (setting [8]); 0.005 µM in assay [1] (setting [9]); 0.235 µM in assay [2]; 340 nM in assay [3]; 7 nM in assay [4]; 0.004 µM in assay [5]. Also, the figures for the IC50 in assay [6] and in assay [7] were 0.003 µM and 6 nM, respectively.
For the compound `Cc1cccc2nc(NC(=O)c3cnc(Cl)c(Cl)c3)n([C@@H]3CCCCN(C(=O)/C=C/CN(C)C)C3)c12` [Example 17-78], the IC50 in assay [1] (setting [8]) is less than 0.001 µM; in assay [1] (setting [9]) it was 0.006 µM; in assay [2] it was 0.152 µM; in assay [3], 1680 nM; in assay [4] it was 37 nM; in assay [5] it was 0.006 µM. In addition, the figures for the IC50 in assay [6] and in assay [7] were 0.005 µM and 134 nM, respectively.
For the compound `Cc1nccc(C(=O)Nc2nc3cccc(C)c3n2C2CCCCN(C(=O)/C=C/CN(C)C)C2)n1` (stereo not shown) [Example 17-54], the IC50 in assay [1] (setting [8]) came out at 0.005 µM; in assay [1] (setting [9]), 0.09 µM; in assay [2], 0.56 µM; in assay [3] it was 4900 nM; in assay [4], 81 nM; in assay [5], 0.041 µM. The IC50 in assay [6] worked out at 0.022 µM; in assay [7] it was 78 nM.
For `Cc1cccc2nc(NC(=O)c3cncc(F)c3)n([C@@H]3CCCCN(C(=O)/C=C/CN(C)C)C3)c12` [Example 17-69], the IC50 in assay [1] (setting [8]) was less than 0.001 µM; in assay [1] (setting [9]) it was 0.002 µM; in assay [2], 0.02 µM; in assay [3], 71 nM; in assay [4], 6 nM; in assay [5] it was less than 0.001 µM. The IC50 was determined as 0.001 µM in assay [6] and 1 nM in assay [7].
For `C=CC(=O)N1CCCC[C@@H](n2c(NC(=O)c3cnnc(C)c3)nc3cc(CN4CCCC4)cc(C)c32)C1` [Example 17-161], the IC50 is less than 0.001 µM in assay [1] (setting [8]); 0.008 µM in assay [1] (setting [9]); 0.281 µM in assay [2]; 269 nM in assay [3]; 9 nM in assay [4]; 0.009 µM in assay [5]. The IC50 in assay [6] turned out to be 0.006 µM; in assay [7] it was 8 nM.

The values above are taken from patent US9440957B2, “Compounds and compositions for modulating EGFR Activity” (Novartis AG, priority 2012, dated 2016).
